Reference: PMC11500415, “Chemical inhibition of stomatal differentiation by perturbation of the master-regulatory bHLH heterodimer via an ACT-Like domain” (Nature Communications, 2024)
“And” between values parts separate entries of the source, which are not always exact repeats. Equal entries are not always repeated. Where two headings read alike, the source gives them in different places.

What was measured:
MUTE_ACTLE162A_E163A = biological target: T1, MUTE_ACTLE162A_E163A (Arabidopsis thaliana, UniProt Q9M8K6, E162A/E163A); assay: BLI direct binding; set-up: species or system A. thaliana; conditions: for koff: read-out: kdis(1/s), MUTE_E162A_E163A on Anti-GST sensor
T1 construct: MUTE-ACTL (114-202); made in house; host or cells: E. coli BL21
Description: (§1) A. thaliana SCRM (1-494), ΔNSPCH (98-364), MUTE (1-202), ΔNFAMA (190-414), MUTEΔC (1-114), MUTER133A_R134A, MUTEE162A_E163A, MUTER133A_R134A_E162A_E163A, SCRM-ACTL (405-494), MUTE-ACTL (114-202), SPCH-ACTL (285-364), FAMA-ACTL (306-414), MUTE_ACTLR133A_R134A, MUTE_ACTLE162A_E163A, MUTE_ACTLR133A_R134A_E162A_E163A were cloned into pGEX-4T-1 vector with an N-terminal GST tag and a thrombin cleavage sequence. For protein expression, the constructs were transformed into E. coli strain BL21. For each transformant, a single colony was selected and incubated in 10 ml LB liquid media. The overnight-incubated E. coli suspensions were transferred to 1 L LB medium and incubated at 37 °C for around 2 h until the OD600 reached 0.4–0.6. The isopropyl β-D-1-thiogalactopyranoside ([…] of final concentration) was added to the cultures and the strains were incubated at 22 °C for a further 18 h. GST-fused proteins were purified using glutathione agarose resin. The soluble portion of the cell lysate was loaded onto a GST-Sepharose column. Nonspecifically bound proteins were removed by washing the column with 20 mM Tris pH 8.0, 200 mM NaCl. The bound GST-fused protein was eluted with 10 mm glutathione and 20 mM Tris pH 8.0, 200 mM NaCl. The GST-fused proteins were exchanged with phosphate-buffered saline buffer, and then the solution was treated with 50 μg of thrombin for 10–12 h at 16 ^οC. The GST portion of the protein was cleaved during thrombin digestion, and then the whole solution was reloaded onto the glutathione S-transferase column to obtain pure protein. The purified proteins were further purified by gel filtration on a Superdex-200 (GE) column using fast protein liquid chromatography and phosphate buffer (pH 7.2) as the eluent. The purity of the protein was checked by SDS-PAGE. For detailed lists of oligo DNA and plasmid information, see Supplementary Tables 5, 6, respectively.
(§2) The binding affinities of SCRM to MUTE / MUTER133A_R134A / MUTEE162A_E163A / MUTER133A_R134A_E162A_E163A in presence and absence of Stomidazolone (3) and its analogues (AYSJ1059 (5) and AYSJ1061 (6)), and Stomidazolone / AYSJ1059 / AYSJ1061 interactions with GST-tagged SCRM, MUTE, SPCH, FAMA, MUTE ΔACTL, MUTE_ACTL, SCRM_ACTL, SPCH_ACTL and FAMA_ACTL, MUTER133A_134A, MUTEE162A_E163A, MUTER133A_R134A_E162A_E163A were measured using the Octet Red96 system (ForteBio, Pall Life Sciences) following the manufacturer’s protocols. The optical probes coated with anti-GST were first loaded with 500 nM GST tagged proteins before kinetic binding analyses. The experiment was performed in 96-well plates maintained at 30 °C. Each well was loaded with 200 μL reaction volume for the experiment. The binding buffer used in these experiments contained 1× PBS supplemented with 2% DMSO, 0.02% Tween20. The concentrations of the Stomidazolone as the analyte in the binding buffer were 100, 50, 25, 12.5, 6.25, 3.12, and 1.56 μM. There was no binding of the analytes to the unloaded probes as shown by the control wells. Binding kinetics to all seven concentrations of the analytes were measured simultaneously using default parameters on the instrument. The data were analyzed using the Octet data analysis software. The association and dissociation curves were fit with the 1:1 homogeneous ligand model. The kobs (observed rate constant) values were used to calculate Kd, with steady-state analysis of the direct binding. See Supplementary Table 3 for details.

[1] = biological target: T2, MUTE_ACTLR133A_R134A_E162A_E163A (Arabidopsis thaliana, UniProt Q9M8K6, E162A/E163A/R133A/R134A); assay: BLI direct binding; set-up: species or system A. thaliana; conditions: for Response: MUTE_R133A_R134A_E162A_E163A on Anti-GST sensor, rep-1, rep-2
T2 construct: MUTE-ACTL (114-202); made in house; host or cells: E. coli BL21
Description: as §1, §2

[2] = MUTE_E162A_E163A on Anti-GST sensor, Stomid 3.12 µM, rep-1, rep-2
[3] = MUTE_E162A_E163A on Anti-GST sensor, Stomid 6.25 µM, rep-1, rep-2
[4] = MUTE_E162A_E163A on Anti-GST sensor, Stomid 12.5 µM, rep-1, rep-2
[5] = MUTE_E162A_E163A on Anti-GST sensor, Stomid 25 µM, rep-1, rep-2
[6] = MUTE_E162A_E163A on Anti-GST sensor, Stomid 50 µM, rep-1, rep-2
[7] = MUTE_E162A_E163A on Anti-GST sensor, Stomid 100 µM, rep-1, rep-2
[8] = MUTE_E162A_E163A on Anti-GST sensor, Stomid 200 µM, rep-1, rep-2

T2 sequence (Q9M8K6 114-202 R133A/R134A/E162A/E163A): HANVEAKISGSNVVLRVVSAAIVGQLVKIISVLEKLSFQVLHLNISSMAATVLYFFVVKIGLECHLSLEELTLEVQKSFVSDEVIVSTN
T1 sequence (Q9M8K6 114-202 E162A/E163A): as the sequence (Q9M8K6 114-202 R133A/R134A/E162A/E163A) above, with A20R, A21R counted along it

O=C1C(c2ccccc2)=NC(NS(=O)(=O)c2ccccc2)(c2ccccc2)N1S(=O)(=O)c1ccccc1 (centres unmarked) [Stomidazolone]
Kd (MUTE_ACTLE162A_E163A; BLI steady state, MUTE_ACTL E162A_E163A, read-out: KD (SS)): 125 ± 12 µM | Kd (MUTE_ACTLE162A_E163A; BLI, MUTE_ACTL E162A_E163A, read-out: KD): 88.3 ± 5.5 µM | RMax (MUTE_ACTLE162A_E163A; [2]): 0.032 and 0.02 | Response (MUTE_ACTLE162A_E163A; [2]): 0.0312 and 0.0195 | Kd (MUTE_ACTLE162A_E163A; MUTE_E162A_E163A on Anti-GST sensor, Stomid 3.12 µM, rep-1, rep-2, read-out: KD): 86.2 µM | RMax (MUTE_ACTLE162A_E163A; [3]): 0.055 and 0.045 | Req/Rmax(%) (MUTE_ACTLE162A_E163A; [3]): 86.2% and 99.9% | Response (MUTE_ACTLE162A_E163A; [3]): 0.053 and 0.041 | kdis (MUTE_ACTLE162A_E163A; [3]): 0.25 s⁻¹ | kon (MUTE_ACTLE162A_E163A; [3]): 2770 M⁻¹ s⁻¹ | Kd (MUTE_ACTLE162A_E163A; MUTE_E162A_E163A on Anti-GST sensor, Stomid 6.25 µM, rep-1, rep-2, read-out: KD): 84.8 µM and 90.2 µM | RMax (MUTE_ACTLE162A_E163A; [4]): 0.07 and 0.08 | Req/Rmax(%) (MUTE_ACTLE162A_E163A; [4]): 86.2% and 95.1% | Response (MUTE_ACTLE162A_E163A; [4]): 0.065 and 0.078 | kobs (MUTE_ACTLE162A_E163A; [4]): 0.00218 s⁻¹ and 0.00344 s⁻¹ | kon (MUTE_ACTLE162A_E163A; [4]): 2790 M⁻¹ s⁻¹ | Kd (MUTE_ACTLE162A_E163A; MUTE_E162A_E163A on Anti-GST sensor, Stomid 12.5 µM, rep-1, rep-2, read-out: KD): 85.4 µM and 87.9 µM | Req/Rmax(%) (MUTE_ACTLE162A_E163A; [5]): 83.8% and 88.2% | kdis (MUTE_ACTLE162A_E163A; [5]): 0.251 s⁻¹ | kobs (MUTE_ACTLE162A_E163A; [5]): 0.0028 s⁻¹ and 0.00329 s⁻¹ | kon (MUTE_ACTLE162A_E163A; [5]): 2870 M⁻¹ s⁻¹ | Kd (MUTE_ACTLE162A_E163A; MUTE_E162A_E163A on Anti-GST sensor, Stomid 25 µM, rep-1, rep-2, read-out: KD): 87.7 µM and 87.3 µM | RMax (MUTE_ACTLE162A_E163A; [6]): 0.145 and 0.18 | Req/Rmax(%) (MUTE_ACTLE162A_E163A; [6]): 89.7% and 82.4% | Response (MUTE_ACTLE162A_E163A; [6]): 0.141 and 0.171 | kobs (MUTE_ACTLE162A_E163A; [6]): 0.00431 s⁻¹ and 0.00272 s⁻¹ | kon (MUTE_ACTLE162A_E163A; [6]): 2770 M⁻¹ s⁻¹ | Kd (MUTE_ACTLE162A_E163A; MUTE_E162A_E163A on Anti-GST sensor, Stomid 50 µM, rep-1, rep-2, read-out: KD): 87.7 µM and 89 µM | RMax (MUTE_ACTLE162A_E163A; [7]): 0.256 and 0.23 | Req/Rmax(%) (MUTE_ACTLE162A_E163A; [7]): 98.6% and 97.1% | Response (MUTE_ACTLE162A_E163A; [7]): 0.254 and 0.2296 | kdis (MUTE_ACTLE162A_E163A; [7]): 0.248 s⁻¹ | kobs (MUTE_ACTLE162A_E163A; [7]): 0.0129 s⁻¹ and 0.00842 s⁻¹ | kon (MUTE_ACTLE162A_E163A; [7]): 2860 M⁻¹ s⁻¹ | Kd (MUTE_ACTLE162A_E163A; MUTE_E162A_E163A on Anti-GST sensor, Stomid 100 µM, rep-1, rep-2, read-out: KD): 88.7 µM and 86.6 µM | RMax (MUTE_ACTLE162A_E163A; [8]): 0.275 and 0.3 | Req/Rmax(%) (MUTE_ACTLE162A_E163A; [8]): 100% | Response (MUTE_ACTLE162A_E163A; [8]): 0.272 and 0.292 | kobs (MUTE_ACTLE162A_E163A; [8]): 0.0343 s⁻¹ | Kd (MUTE_ACTLE162A_E163A; MUTE_E162A_E163A on Anti-GST sensor, Stomid 200 µM, rep-1, rep-2, read-out: KD): 89.2 µM | koff (MUTE_ACTLE162A_E163A; Stomid 3.12 µM, rep-1, rep-2): 0.243 s⁻¹ | koff (MUTE_ACTLE162A_E163A; Stomid 6.25 µM, rep-1, rep-2): 0.242 s⁻¹ | koff (MUTE_ACTLE162A_E163A; Stomid 12.5 µM, rep-1, rep-2): 0.245 s⁻¹ | koff (MUTE_ACTLE162A_E163A; Stomid 25 µM, rep-1, rep-2): 0.246 s⁻¹ | koff (MUTE_ACTLE162A_E163A; Stomid 50 µM, rep-1, rep-2): 0.246 s⁻¹ | koff (MUTE_ACTLE162A_E163A; Stomid 100 µM, rep-1, rep-2): 0.247 s⁻¹ | koff (MUTE_ACTLE162A_E163A; Stomid 200 µM, rep-1, rep-2): 0.25 s⁻¹ | kon (MUTE_ACTLE162A_E163A; read-out: kon(1/Ms), MUTE_E162A_E163A on Anti-GST sensor, Stomid 3.12 µM, rep-1, rep-2): 2830 M⁻¹ s⁻¹ | kon (MUTE_ACTLE162A_E163A; read-out: kon(1/Ms), MUTE_E162A_E163A on Anti-GST sensor, Stomid 6.25 µM, rep-1, rep-2): 2850 M⁻¹ s⁻¹ | kon (MUTE_ACTLE162A_E163A; read-out: kon(1/Ms), MUTE_E162A_E163A on Anti-GST sensor, Stomid 12.5 µM, rep-1, rep-2): 2870 M⁻¹ s⁻¹ | kon (MUTE_ACTLE162A_E163A; read-out: kon(1/Ms), MUTE_E162A_E163A on Anti-GST sensor, Stomid 25 µM, rep-1, rep-2): 2800 M⁻¹ s⁻¹ | kon (MUTE_ACTLE162A_E163A; read-out: kon(1/Ms), MUTE_E162A_E163A on Anti-GST sensor, Stomid 50 µM, rep-1, rep-2): 2810 M⁻¹ s⁻¹ | kon (MUTE_ACTLE162A_E163A; read-out: kon(1/Ms), MUTE_E162A_E163A on Anti-GST sensor, Stomid 100 µM, rep-1, rep-2): 2780 M⁻¹ s⁻¹ | kon (MUTE_ACTLE162A_E163A; read-out: kon(1/Ms), MUTE_E162A_E163A on Anti-GST sensor, Stomid 200 µM, rep-1, rep-2): 2800 M⁻¹ s⁻¹ | KD (SS) ([1]; BLI steady state, MUTE_ACTL R133A_R134A_E162A_E163A, ND = no binding was detected): no binding was detected | Response ([1]; Stomid 3.12 µM): 0.021 and 0.041 | Response ([1]; Stomid 6.25 µM): 0.061 and 0.035 | Response ([1]; Stomid 12.5 µM): 0.063 and 0.047 | Response ([1]; Stomid 25 µM): 0.078 and 0.041 | Response ([1]; Stomid 50 µM): 0.062 and 0.082 | Response ([1]; Stomid 100 µM): 0.075 and 0.108 | Response ([1]; Stomid 200 µM): 0.104 and 0.136
